Test results from article PMC8443048 (PLoS Pathogens, 2021).

Molecular target: T1, isocitrate lyase (ICL) (Brucella abortus, UniProt Q2YQA0)
T1 construct: gene BAB1_1631
Settings: covalent; adduct with Cys185; active site

T1 sequence (Q2YQA0 1-429): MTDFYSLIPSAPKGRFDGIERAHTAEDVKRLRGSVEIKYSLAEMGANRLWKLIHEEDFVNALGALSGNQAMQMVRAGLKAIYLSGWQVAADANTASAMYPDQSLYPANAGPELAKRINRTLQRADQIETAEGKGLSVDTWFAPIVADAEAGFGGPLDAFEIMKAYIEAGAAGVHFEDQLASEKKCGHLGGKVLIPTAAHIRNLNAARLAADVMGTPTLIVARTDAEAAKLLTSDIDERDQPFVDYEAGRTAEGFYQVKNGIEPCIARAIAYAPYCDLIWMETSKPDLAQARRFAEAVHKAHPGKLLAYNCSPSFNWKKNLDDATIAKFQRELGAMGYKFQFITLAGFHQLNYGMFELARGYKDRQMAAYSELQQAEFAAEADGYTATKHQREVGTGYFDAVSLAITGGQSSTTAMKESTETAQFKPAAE

SMILES: C=C(CC(=O)O)C(=O)O [itaconate]
- X-ray crystallography of the complex, 1.8 Å: unambiguously shows a covalent adduct between itaconate and Cys185 in B. abortus isocitrate lyase
